Source: patent US9273043B2, “TRPV1 antagonists including dihydroxy substituent and uses thereof” (Purdue Pharma L.P., priority 2011, dated 2016)
Marks after values point to notes of the source that are not given here.

Key:
[1] = system: MIA-induced osteoarthritis pain; test: MIA-induced osteoarthritis model, weight bearing difference (WBD) test; type: in vivo; settings: rat MIA, oral 3 mg/kg
From the text: Osteoarthritis Pain: To assess the actions of a Compound of Formula (I) for the treatment or prevention of osteoarthritis pain, the rat monosodium iodo-acetate (MIA, i.e., sodium 2-iodoacetate) induced osteoarthritis model was used. Intra-articular injection of MIA causes joint degeneration characterized by osteolysis and swelling, with displacement of the patella, and reductions in bone mineral content and bone mineral density (Pomonis et al., “Development and pharmacological characterization of a rat model of osteoarthritis pain,” Pain 114: 339-346 (2005)). Under isoflurane anaesthesia, an intra-articular injection of 2 mg of MIA (Sigma-Aldrich) in 50 μl of saline was administered through the infrapatellar ligament of the knee joint of the right hind leg of the male, 6 week old Crl:CD(SD) rats. Control rats received an intra-articular injection of 50 μl of saline into the knee joint of the right hind leg. The left knee joint of all rats was untreated. […] Thus, in the assessment for osteoarthritis pain relief through gripping capability determinations, the 24 hour time point was the start of the next day when drug-in-vehicle was again orally administered (24 hours after the prior administration) for certain dosages. […] Weight Bearing Difference Test as an Assessment of Osteoarthritis Related Pain: The weight bearing difference test provides an accepted assessment of the efficacy of clinically useful analgesic drugs with respect of osteoarthritis related pain (see Pomonis et al. (2005)). WBD was assessed using a Linton Incapacitance Tester (Linton Instrumentation, Norfolk, UK). Rats were placed on the apparatus so that they were standing on their hind legs, and allowed to acclimate to the apparatus. When stationary, the weight born on each leg was measured over a 3s period. Three readings were taken for each rat at each time point; the average of the three readings was used for data analysis. WBD was expressed as “% WR”, i.e., the percentage of weight born on the MIA-injected right hind leg, using the following formula: [formula] where WR is the weight on the right hind leg and WL is the weight on the left (untreated) hind leg. […] The “% WRR”, i.e., the percentage reversal of the % WR impediment occurring post-MIA injection, was determined for each dosage at each time point using the following formula: [formula] where (% WR)Post-Drug is the % WR determined at each post-oral-administration time-point for each dose of each administered substance, (% WR)Pre-Drug is the % WR determined pre-oral-administration of each administered substance, and (% WR)Control Rat is the % WR determined for control rats (receiving the saline injection into the right hind leg knee joint). With the exception of the controls (i.e., celecoxib, vehicle) where the student's t-test was used, Dunnett's test was conducted for the % WRR.

[2] = system: MIA-induced osteoarthritis pain; test: MIA-induced osteoarthritis model, grip force test; type: in vivo, rat; settings: for % GFR [mean]: rat MIA, grip force, oral 3 mg/kg
From the text: Osteoarthritis Pain: To assess the actions of a Compound of Formula (I) for the treatment or prevention of osteoarthritis pain, the rat monosodium iodo-acetate (MIA, i.e., sodium 2-iodoacetate) induced osteoarthritis model was used. Intra-articular injection of MIA causes joint degeneration characterized by osteolysis and swelling, with displacement of the patella, and reductions in bone mineral content and bone mineral density (Pomonis et al., “Development and pharmacological characterization of a rat model of osteoarthritis pain,” Pain 114: 339-346 (2005)). Under isoflurane anaesthesia, an intra-articular injection of 2 mg of MIA (Sigma-Aldrich) in 50 μl of saline was administered through the infrapatellar ligament of the knee joint of the right hind leg of the male, 6 week old Crl:CD(SD) rats. Control rats received an intra-articular injection of 50 μl of saline into the knee joint of the right hind leg. The left knee joint of all rats was untreated. Two weeks after MIA injection, rats were assessed for osteoarthritis pain related-behaviors immediately prior to and 1, 3, 5, 7, and 24 hours after oral drug-in-vehicle administration (for day 1) by determining their weight-bearing capabilities, via the weight bearing difference (WBD) test, and their gripping capabilities, via the grip force test, each as described below. Thus, in the assessment for osteoarthritis pain relief through gripping capability determinations, the 24 hour time point was the start of the next day when drug-in-vehicle was again orally administered (24 hours after the prior administration) for certain dosages. On days 2, 3, and 4, gripping capability response was determined 3 and 24 hours thereafter.
The grip force (GF) of the hind legs was assessed using a Animal Grip Strength System (San Diego Instruments, San Diego, Calif.). Rats were gently restrained and allowed to grasp the wire mesh strain gauge with their hind legs. The animals were then moved in a rostral-caudal direction until they let go of the gauge. The force (in g) at which the rat let go was recorded. Each animal was tested twice at approximately 3-10 minute intervals at each time point and the average of the two readings was used for the GF in data analysis.
Grip force, normalized to account for the weight of each animal, was expressed as “GF/B”, i.e., the ratio of GF to body weight, where GF is the grip force in grams and B is the body weight of the animal in kg. The “% GFR”, i.e., the percentage reversal of the (normalized) grip force impediment occurring post-MIA injection, was determined for each dosage at each time point using the following formula:
[formula] where (GF/B)Drug is the GF/B determined at each post-oral-administration time-point for each dose of each substance administered to MIA-injected animals, (GF/B)Vehicle is the GF/B determined at each post-oral-administration time-point for the vehicle control administered to MIA-injected animals, and (GF/B)Control Rat is the GF/B determined for control rats (saline-injected animals receiving orally-administered vehicle only). With the exception of the controls (i.e., celecoxib, vehicle) where the student's t-test was used, Dunnett's test was conducted for the % GFR. In either instance, values with p <0.05 were considered to be statistically significant.

[3] = system: FCA-induced inflammation of the rat hind paw; test: Freund's complete adjuvant (FCA) model of inflammatory pain, paw withdrawal threshold; type: in vivo; settings: rat FCA, 20 mg/kg
Protocol: Test Animals: Each experiment uses rats weighing between 200-260 g at the start of the experiment. The rats are group-housed and have free access to food and water at all times, except prior to oral administration of a Compound of Formula (I) when food is removed for 16 hours before dosing. A control group acts as a comparison to rats treated with a Compound of Formula (I). The control group is administered the vehicle for the Compound of Formula (I). The volume of vehicle administered to the control group is the same as the volume of carrier and Compound of Formula (I) administered to the test group.
Inflammatory Pain: To assess the actions of a Compound of Formula (I) for the treatment or prevention of inflammatory pain, the Freund's complete adjuvant (“FCA”) model of inflammatory pain was used. FCA-induced inflammation of the rat hind paw is associated with the development of persistent inflammatory mechanical hyperalgesia and provides reliable prediction of the anti-hyperalgesic action of clinically useful analgesic drugs (Bartho et al., “Involvement of capsaicin-sensitive neurons in hyperalgesia and enhanced opioid antinociception in inflammation,” Naunyn-Schmiedeberg's Archives of Pharmacol. 342:666-670 (1990)). The right hind paw of each male, 6-week old Jcl:SD rat was administered a 50 μL intraplantar injection of 50% FCA (Sigma-Aldrich). 24 hour post-injection, the animal was assessed for response to noxious mechanical stimuli by determining the PWT, as described below. Rats were then administered a single injection of 0.1, 0.3, 1, 3, or 10 mg/kg of either the product prepared with Compound A155(a) and fumaric acid as described in Example 10, 20 mg/kg of an ibuprofen control (EMD Millipore Chemicals, Inc.), or vehicle as a control (0.5% weight/volume methylcellulose (400cP, Wako Pure Chemical Industries, Ltd., Osaka, Japan)/aqueous solution). […] Responses to noxious mechanical stimuli were then determined 1, 3, 5, and 7 hours post-administration. Percentage reversal of hyperalgesia for each animal was defined as: […]
With the exception of the controls (i.e., ibuprofen, vehicle) where the student's t-test was used, Dunnett's test was conducted for the % reversal. In either instance, values with p<0.05 were considered to be statistically significant. The % reversal results for administration of the product prepared with Compound A155(a) and fumaric acid as described in Example 10 and the respective controls are presented in Table 7.
Response to Mechanical Stimuli as an Assessment of Mechanical Hyperalgesia: The paw pressure assay was used to assess mechanical hyperalgesia. For this assay, hind paw withdrawal thresholds (PWT) to a noxious mechanical stimulus were determined using an analgesymeter (Model 37215, commercially available from Ugo Basile of Italy) as described in Stein, “Unilateral Inflammation of the Hindpaw in Rats as a Model of Prolonged Noxious Stimulation: Alterations in Behavior and Nociceptive Thresholds,” Pharmacol. Biochem. and Behavior 31:451-455 (1988). The maximum weight that could be applied to the hind paw was set at 250 g and the end point was taken as complete withdrawal of the paw. PWT was determined once for each rat at each time point and either only the affected (ipsilateral) paw was tested, or both the ipsilateral and contralateral (non-injured) paw were tested.

## Cc1ccc(-c2cc(C(F)(F)F)nn2-c2ccc(S(N)(=O)=O)cc2)cc1 [Celecoxib, celecoxib, reference compound]
[1]; 1 h after administration
  % WRR [mean]: 10.2^† %
[1]; 1 h after administration, listed as celecoxib
  % WRR [mean]: 10.2%
[1]; 3 h after administration
  % WRR [mean]: 27.8^†† %
[1]; 3 h after administration, listed as celecoxib
  % WRR [mean]: 27.8%
[1]; 5 h after administration
  % WRR [mean]: 14.1^†† %
[1]; 5 h after administration, listed as celecoxib
  % WRR [mean]: 14.1%
[1]; 7 h after administration
  % WRR [mean]: 6.0^† %
[1]; 7 h after administration, listed as celecoxib
  % WRR [mean]: 6.0%
[1]; 24 h after administration
  % WRR [mean]: 2.0%
[2]; 30.0% reversal (3 mg/kg, 3 h, day 1) as share of the 45.2% reversal of the product at 1 mg/kg
  maximum analgesic efficacy relative to the Example 10 product at 1 mg/kg: about 66.4%
[2]; 30.0% reversal (3 mg/kg, 3 h, day 1) as share of the 53.6% reversal of the product at 3 mg/kg
  maximum analgesic efficacy relative to the Example 10 product at 3 mg/kg: ~56.0%
[2]; 1 h (day 1)
  % GFR [mean]: 22.6^†† %
[2]; 3 h (day 1)
  % GFR [mean]: 30.0^†† %
[2]; 3 h (day 1), listed as celecoxib
  % GFR [mean]: 30.0%
[2]; 5 h (day 1)
  % GFR [mean]: 20.9^†† %
[2]; 7 h (day 1)
  % GFR [mean]: 3.6%
[2]; 24 h after day 1 dose (0 hrs day 2)
  % GFR [mean]: −3.6%

## CC(C)Cc1ccc(C(C)C(=O)O)cc1 (stereo not shown) [Ibuprofen, ibuprofen, reference compound]
[3]; 1 h after administration
  % Reversal [mean]: 28.6^†† %
[3]; 1 h after administration, listed as ibuprofen
  % Reversal [mean]: 28.6%
[3]; 3 h after administration
  % Reversal [mean]: 41.5^†† %
[3]; 3 h after administration, listed as ibuprofen
  % Reversal [mean]: 41.5%
[3]; 5 h after administration
  % Reversal [mean]: 39.2^†† %
[3]; 5 h after administration, listed as ibuprofen
  % Reversal [mean]: 39.2%
[3]; 7 h after administration
  % Reversal [mean]: 32.5^†† %
[3]; 7 h after administration, listed as ibuprofen
  % Reversal [mean]: 32.5%
